Measurements reported in patent publication US11572398B2, “GLP-1 derivatives and uses thereof” (Novo Nordisk A/S, priority 2014, dated 2023).
Like-named read-outs stand apart in the source and are kept apart here.

Legend:
[1] = target: T1, human GLP-1 receptor (Homo sapiens, UniProt P43220); test: In vitro potency: CRE luciferase reporter gene assay in BHK cells expressing the human GLP-1 receptor; type: cell-based
T1 construct: expressed in transfected cells; host or cells: BHK cells (parent line BHKTS13), clone FCW467-12A; membrane preparation
Summary of the method: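 Whole-cell assay in stably transfected BHK cells carrying CRE-driven firefly luciferase, 5×10^3 cells/well, in assay buffer with 2% ovalbumin and 0.2% Pluronic F-68. Compound working solutions were 0.2 μM.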

[2] = target: T1, human GLP-1 receptor; test: GLP-1 receptor binding: competitive binding assay (125I-GLP-1, SPA) on isolated membranes at low and high HSA
[3] = Pharmacokinetic study in minipigs (i.v.); settings: male, Göttingen, minipig, in vivo, iv
Description: The purpose of this study is to determine the protraction in vivo of the GLP-1 derivatives after i.v. administration to minipigs, i.e. the prolongation of their time in the body and thereby their time of action. This is done in a pharmacokinetic (PK) study, where the terminal half-life of the derivative in question is determined. By terminal half-life is meant the time it takes to halve a certain plasma concentration in the terminal elimination phase.
Male Göttingen minipigs were obtained from Ellegaard Göttingen Minipigs (Dalmose, Denmark) approximately 7-14 months of age and weighing approximately 16-35 kg were used in the studies. The minipigs were housed either individually (pigs with permanent catheters) or in a group and fed restrictedly once or twice daily with SDS minipig diet (Special Diets Services, Essex, UK).
After at least 2 weeks of acclimatisation two permanent central venous catheters were implanted in vena cava caudalis or cranialis in each animal. The animals were allowed 1 week recovery after the surgery, and were then used for repeated pharmacokinetic studies with a suitable wash-out period between successive GLP-1 derivative dosings.
Blood samples (for example 0.8 ml) were collected in EDTA buffer (8 mM) and then centrifuged at 4° C. and 1942G for 10 minutes.
Plasma was pipetted into Micronic tubes on dry ice, and kept at −20° C. until analysed for plasma concentration of the respective GLP-1 compound using LOCI. Individual plasma concentration-time profiles were analyzed by a non-compartmental pharmacokinetic method in Phoenix v. 6.2 (Pharsight Inc., Mountain View, Calif., USA), or other relevant software for PK analysis, and the resulting terminal half-lives (harmonic mean) determined.

[4] = Low HSA IC50, low HSA (max. 0.001% final assay concentration)

T1 sequence (P43220 24-463): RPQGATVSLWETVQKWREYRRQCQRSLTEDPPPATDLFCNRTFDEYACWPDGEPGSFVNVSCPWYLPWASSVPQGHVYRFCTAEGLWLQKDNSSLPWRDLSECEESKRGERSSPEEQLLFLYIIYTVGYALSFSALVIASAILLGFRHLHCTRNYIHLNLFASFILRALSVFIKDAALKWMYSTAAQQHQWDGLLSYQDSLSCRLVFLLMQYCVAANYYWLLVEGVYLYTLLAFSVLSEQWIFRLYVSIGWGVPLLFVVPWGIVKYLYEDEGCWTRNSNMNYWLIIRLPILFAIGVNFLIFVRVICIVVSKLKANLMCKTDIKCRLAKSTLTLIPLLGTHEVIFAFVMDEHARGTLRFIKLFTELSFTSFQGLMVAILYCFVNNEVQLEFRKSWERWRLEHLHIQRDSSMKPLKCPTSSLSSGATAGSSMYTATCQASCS

What does the source list for `CC[C@H](C)[C@H](NC(=O)[C@H](Cc1ccccc1)NC(=O)[C@H](CCC(=O)O)NC(=O)[C@H](CCCNC(=N)N)NC(=O)[C@H](C)NC(=O)[C@H](C)NC(=O)[C@H](CCC(N)=O)NC(=O)[C@H](CCC(=O)O)NC(=O)[C@H](CCC(=O)O)NC(=O)[C@H](CC(C)C)NC(=O)[C@H](Cc1ccc(O)cc1)NC(=O)[C@H](CO)NC(=O)[C@H](CO)NC(=O)[C@@H](NC(=O)[C@H](CC(=O)O)NC(=O)[C@H](CO)NC(=O)[C@@H](NC(=O)[C@H](Cc1ccccc1)NC(=O)[C@@H](NC(=O)CNC(=O)[C@H](CCC(=O)O)NC(=O)C(C)(C)NC(=O)[C@@H](N)Cc1c[nH]cn1)[C@@H](C)O)[C@@H](C)O)C(C)C)C(=O)N[C@@H](C)C(=O)N[C@@H](Cc1c[nH]c2ccccc12)C(=O)N[C@@H](CC(C)C)C(=O)N[C@H](C(=O)N[C@@H](CCCNC(=N)N)C(=O)NCC(=O)N[C@@H](CCCNC(=N)N)C(=O)N[C@@H](CCCCNC(=O)CN(CCCNC(=O)COCCOCCNC(=O)COCCOCCNC(=O)COCCOCCNC(=O)COCCOCCNC(=O)COCCOCCNC(=O)[C@@H](N)CCCCNC(=O)[C@@H](N)CCCCNC(=O)CCCNC(=O)CCCCCCCCCCCCCCCS(=O)(=O)O)CCCNC(=O)COCCOCCNC(=O)COCCOCCNC(=O)COCCOCCNC(=O)COCCOCCNC(=O)COCCOCCNC(=O)[C@@H](N)CCCCNC(=O)[C@@H](N)CCCCNC(=O)CCCNC(=O)CCCCCCCCCCCCCCCS(=O)(=O)O)C(=O)O)C(C)C` [Example 9, N{Epsilon-37}-[2-[bis[3-[[2-[2-[2-[[2-[2-[2-[[2-[2-[2-[[2-[2-[2-[[2-[2-[2-[[(2S)-2-amino-6-[[(2S)-2-amino-6-[4-(16-sulfohexadecanoylamino)butanoylamino]hexanoyl]amino]hexanoyl]amino]ethoxy]ethoxy]acetyl]amino]ethoxy]ethoxy]acetyl]amino]ethoxy]ethoxy]acetyl]amino]ethoxy]ethoxy]acetyl]amino]ethoxy]ethoxy]acetyl]amino]propyl]amino]acetyl]-[Aib8,Glu22,Arg26,Arg34,Lys37]-GLP-1-(7-37)-peptide]?
EC50 [1]: 0.0016 nM; IC50 ([2]; High HSA IC50, high HSA (2.0% final assay concentration)): 29 nM; IC50 [2, 4]: 0.16 nM; half-life ([3]; 5 nmol/kg): 104 h

What does the source list for `CC[C@H](C)[C@H](NC(=O)[C@H](Cc1ccccc1)NC(=O)[C@H](CCC(=O)O)NC(=O)[C@H](CCCNC(=N)N)NC(=O)[C@H](C)NC(=O)[C@H](C)NC(=O)[C@H](CCC(N)=O)NC(=O)[C@H](CCC(=O)O)NC(=O)[C@H](CCC(=O)O)NC(=O)[C@H](CC(C)C)NC(=O)[C@H](Cc1ccc(O)cc1)NC(=O)[C@H](CO)NC(=O)[C@H](CO)NC(=O)[C@@H](NC(=O)[C@H](CC(=O)O)NC(=O)[C@H](CO)NC(=O)[C@@H](NC(=O)[C@H](Cc1ccccc1)NC(=O)[C@@H](NC(=O)CNC(=O)[C@H](CCC(=O)O)NC(=O)C(C)(C)NC(=O)[C@@H](N)Cc1c[nH]cn1)[C@@H](C)O)[C@@H](C)O)C(C)C)C(=O)N[C@@H](C)C(=O)N[C@@H](Cc1c[nH]c2ccccc12)C(=O)N[C@@H](CC(C)C)C(=O)N[C@H](C(=O)N[C@@H](CCCNC(=N)N)C(=O)NCC(=O)N[C@@H](CCCNC(=N)N)C(=O)N[C@@H](CCCCNC(=O)COCCOCCNC(=O)COCCOCCNC(=O)COCCOCCNC(=O)COCCOCCNC(=O)CN(CCCNC(=O)COCCOCCNC(=O)COCCOCCNC(=O)CC[C@H](NC(=O)[C@H]1CC[C@H](CNC(=O)CCCCCCCCCCCCCCCCCCC(=O)O)CC1)C(=O)O)CCCNC(=O)COCCOCCNC(=O)COCCOCCNC(=O)CC[C@H](NC(=O)[C@H]1CC[C@H](CNC(=O)CCCCCCCCCCCCCCCCCCC(=O)O)CC1)C(=O)O)C(=O)O)C(C)C` [Example 12]?
EC50 ([1]; whole cell reporter gene assay, BHK cells, human GLP-1 receptor, average of at least two replicates, read-out: EC50): 0.02 nM; IC50 [2, 4]: 0.51 nM; IC50 ([2]; high HSA (2.0% final assay concentration), read-out: High HSA IC50): 25 nM; half-life ([3]; 2 nmol/kg): 137 h
